Experiment in all cases: NCI anticancer screen, dose series, 48 h
Test [1] deals with HCC-2998 colon.
In test [2] the test system is T-47D breast.
The test system of test [3] is HCT-116 colon.
Test [4] has as its system COLO 205 colon.
Test [5] concerns SF-295 CNS.
The test system of test [6] is HS 578T breast.
Test [7] has as its system ACHN renal.
For test [8], the system named is SNB-75 CNS.
For test [9], the system named is NCI-H460 lung.
Test [10] relates to SN12C renal.
The subject of test [11] is SK-OV-3 ovarian.
For test [12], the system named is HT29 colon.
For test [13], the system named is IGROV1 ovarian.
The subject of test [14] is NCI-H522 lung.

SMILES strings stand for the structures.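 These data come from cells grown in 96-well plates and exposed to compound for 48 hours at five concentrations. Definition used: TGI = concentration required for complete inhibition of growth.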

Consider `Cn1c(-c2cccs2)cc(-c2cccs2)c1-c1ccsc1`, for which the TGI in [1], in [2], in [3], in test [4], in [5] and in [6] was > 100 µM in each case. Besides, the TGI in [7], in [8], in test [9], in test [10], in [11] and in test [12] was > 100 µM in each case.

Consider `Cc1cccc(NC(=S)Nc2ccccc2Cl)n1`, for which the TGI in test [2], in test [3], in [13], in [4], in [5] and in test [6] was > 100 µM each time. Also, the TGI in test [8] was 52.7 µM; in test [9], > 100 µM; in test [10] it was > 100 µM; in test [11] it was 51.8 µM; in test [12], > 100 µM.

Turning to `O=c1[nH]nc(Cc2ccccc2)n1Nc1ccccc1`, the TGI in [1], in test [3], in test [13], in test [4], in [5] and in test [6] was > 100 µM in each case. Also, the TGI in [7], in test [8], in test [14], in [9], in test [10] and in [12] was > 100 µM throughout.

`CC(C)C1OC(=O)/C=C/C=C/C=C/C=C/C=C/CC(O)CC(O)CC(O)CC(O)CC(O)CC(O)CC(O)CC(O)/C=C/C1C` (centres undefined): the TGI in test [1], in test [3], in test [13], in test [4], in test [5] and in test [7] was > 100 µM throughout. Besides, the TGI in test [8], in [9], in test [10] and in [12] was > 100 µM in each case.

Regarding `O=[N+]([O-])c1cn[n+]([O-])c2ccccc12`, the TGI in test [1] was found to be 3.44 µM; in [2], 18 µM; in test [3], 2.62 µM; in [4], 26.5 µM; in test [5], 17.6 µM; in test [6] it was 29.1 µM. The TGI turned out to be 3.83 µM in test [7]; 24.5 µM in [9]; 21.5 µM in test [10]; 26.3 µM in test [11]; 35.2 µM in test [12].

`C[C@H](O)C1CC(Cn2nnc3c(N)ncnc32)C1(C)C` (some centres undefined): the TGI in test [1], in test [2], in test [3], in test [5], in test [6] and in test [7] was > 100 µM in each case. Moreover, the TGI in test [8], in test [10] and in [11] was > 100 µM throughout.

With `CCOC(=O)C(NC(=O)Nc1ccc(Cl)c(Cl)c1)C(F)(F)F` (centres undefined), the TGI in test [1], in test [2], in test [3], in test [13], in test [4] and in [6] was > 100 µM each time. Moreover, the TGI in [7], in [8], in [10], in test [11] and in [12] was > 100 µM in each case.

For `CNC1=CC(=O)C2=C(C1=O)[C@H]1CC[C@]3(C)C(=O)CC[C@H]3[C@@H]1CC2`, the TGI is 31.7 µM in test [1]; 57.9 µM in [2]; 35.7 µM in test [3]; 16.1 µM in [13]; 33.3 µM in test [4]; 29.1 µM in test [5]. In addition, the TGI in test [7] is 71.4 µM; in [8], 27.8 µM; in test [9], 39.5 µM; in test [10] it was > 52.7 µM; in test [11], > 100 µM.

For the molecule `S=C1N=C(Cl)C2(NN1)c1ccccc1-c1ccccc12`, the TGI in test [1], in test [2], in test [13], in [4], in test [6] and in test [8] was > 10 µM each time. Also, the TGI in [9], in test [10] and in test [11] was > 10 µM throughout.

With `Cc1c(NC(=S)Nc2ccc(Cl)cc2)c(=O)n(-c2ccccc2)n1C`, the TGI in [1], in test [3], in test [13], in test [4], in [5] and in [6] was > 100 µM in each case. Moreover, the TGI in [7], in test [8], in test [14], in test [9], in test [11] and in test [12] was > 100 µM throughout.

As for `CC(C)CCn1c(=O)c2c(=O)[nH][nH]c2c2ccccc21`, the TGI in [1], in [3], in test [13], in test [4], in test [5] and in [6] was > 100 µM in each case. The TGI in test [7], in test [14], in test [9], in test [10] and in [12] was > 100 µM throughout.

Turning to `COc1ccc(CC2NC(=O)/C=C/CC(C(C)C3OC3c3ccccc3)OC(=O)C(CC(C)C)OC(=O)C(C)CNC2=O)cc1Cl` (centres undefined), the TGI in [1] was 0.00259 µM; in test [3], > 0.1 µM; in test [4], 2.12e-05 µM; in test [7] it was > 0.1 µM; in [8], > 0.1 µM; in [14], > 0.1 µM. In addition, the TGI in test [9] was 0.00696 µM; in [10], > 0.1 µM; in test [11], > 0.1 µM; in test [12] it was 0.000108 µM.

Source of the values: PubChem BioAssay (NCI).
